Source: patent publication US20260250318A1, “COMPOSITIONS AND METHODS FOR CROSSING THE BLOOD BRAIN BARRIER” (VOYAGER THERAPEUTICS, INC., priority 2022, published 2026)

Legend:
[1] = system: brains, heart, liver, muscle, and DRG of the NHPs; assay: Maturation of TTM-001 and TTM-002 capsids, NGS enrichment in NHP tissues; type: in vivo; conditions: relative to AAV9 control
In short: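 Variants carry mutations within and flanking the loop IV peptide insert: positions 450–466 were triplet-randomized, while positions 449–466 received low-frequency point mutations. The combined pool went into two NHPs, and each peptide was scored by NGS enrichment ratio against AAV9.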

[2] = system: brain; assay: Matured TTM-001 and TTM-002 variants, NGS enrichment in mouse brain; type: in vivo, mice; conditions: relative to AAV9 control
[3] = NGS fold-enrichment of RNA, NHP brain
[4] = NGS fold-enrichment, DRG of NHPs
[5] = NGS fold-enrichment, NHP liver DNA
[6] = NGS fold-enrichment, NHP liver RNA
[7] = NGS fold-enrichment, NHP muscle
[8] = NGS fold-enrichment, RNA, brain of NHPs
[9] = NGS fold-enrichment, heart of NHPs
[10] = NGS fold-enrichment, liver DNA of NHPs
[11] = NGS fold-enrichment, liver RNA of NHPs
[12] = NGS fold-enrichment, muscle of NHPs
[13] = NGS fold-enrichment, brain of mice
[14] = NGS fold-enrichment, mouse brain
[15] = NGS fold-enrichment of matured AAV capsid variants, NHP brain, RNA

| Sequence | Fold Enrichment relative to AAV9, Brain (NHP) [1, 3] [fold] | Fold Enrichment relative to AAV9, DRG (NHP) [1, 4] [fold] | Fold Enrichment relative to AAV9, DRG (NHP) ([1]; NGS fold-enrichment, NHP DRG) [fold] | Fold Enrichment relative to AAV9, Heart (NHP) ([1]; NGS fold-enrichment, NHP heart) [fold] | Fold Enrichment relative to AAV9, Liver DNA (NHP) [1, 5] [fold] | Fold Enrichment relative to AAV9, Liver RNA (NHP) [1, 6] [fold] | Fold Enrichment relative to AAV9, Muscle (NHP) [1, 7] [fold] | Fold Enrichment relative to AAV9, Brain (NHP) [1, 8] [fold] | Fold Enrichment relative to AAV9, Heart (NHP) [1, 9] [fold] | Fold Enrichment relative to AAV9, Liver DNA (NHP) [1, 10] [fold] | Fold Enrichment relative to AAV9, Liver RNA (NHP) [1, 11] [fold] | Fold Enrichment relative to AAV9, Muscle (NHP) [1, 12] [fold] | Fold Enrichment relative to AAV9, Brain (Mouse) [2, 13] [fold] | Fold Enrichment relative to AAV9, Brain (Mouse) [2, 14] [fold] | Fold Enrichment relative to AAV9, Brain (NHP) [1, 15] [fold] | Fold Enrichment relative to AAV9, DRG (NHP) ([1]; NHP DRG) [fold] | Fold Enrichment relative to AAV9, Heart (NHP) ([1]; NHP heart) [fold] | Fold Enrichment relative to AAV9, Liver DNA (NHP) ([1]; NHP liver, DNA) [fold] | Fold Enrichment relative to AAV9, Liver RNA (NHP) ([1]; NHP liver, RNA) [fold] | Fold Enrichment relative to AAV9, Muscle (NHP) ([1]; NHP muscle) [fold] | further results |
| --- | --- | --- | --- | --- | --- | --- | --- | --- | --- | --- | --- | --- | --- | --- | --- | --- | --- | --- | --- | --- | --- |
| KTETHSGSPHSKAQNQQT | 77.974 | 0.000 | 0.000 | 0.067 | 0.512 | 0.000 | 0.000 | 77.974 | 0.067 | 0.512 | 0.000 | 0.000 | 57.287 | 57.287 | – | – | – | – | – | – | – |
| KTEVGHDSPHKSGQNQQT | 112.457 | – | 0.000 | 0.011 | 0.138 | 0.000 | 0.000 | – | – | – | – | – | – | 13.125 | – | – | – | – | – | – | – |
| KTEVTSGSPHSKAQNQQT | – | – | – | – | – | – | – | – | – | – | – | – | – | – | 54.663 | 0.000 | 0.000 | 0.185 | 0.323 | 0.000 | Fold Enrichment relative to AAV9, Brain (Mouse) ([2]; mouse brain): 81.482 fold |
| KTEYISGSPHSKAQNQQT | – | – | – | – | – | – | – | – | – | – | – | – | – | – | 57.891 | 0.000 | 0.000 | 0.075 | 0.076 | 0.000 | Fold Enrichment relative to AAV9, Brain (Mouse) ([2]; mouse brain): 57.620 fold |
| KTEYNSGSPHSKAQNQQT | – | – | – | – | – | – | – | – | – | – | – | – | – | – | 50.256 | 0.000 | 0.000 | 0.009 | 0.000 | 0.000 | Fold Enrichment relative to AAV9, Brain (Mouse) ([2]; mouse brain): 62.679 fold |
| KTFHGSGSPHSKTQNQQT | 94.714 | 0.000 | 0.000 | 0.210 | 0.000 | 0.000 | 0.120 | 94.714 | 0.210 | 0.000 | 0.000 | 0.120 | 51.119 | 51.119 | – | – | – | – | – | – | – |
| KTFKGSGSPHSKAPNQQT | 80.890 | 0.000 | 0.000 | 0.000 | 0.017 | 0.000 | 0.000 | 80.890 | 0.000 | 0.017 | 0.000 | 0.000 | 71.144 | 71.144 | – | – | – | – | – | – | – |
| KTFNASGSPHSKAPNQQT | – | 0.208 | – | – | – | – | – | 65.392 | 0.000 | 0.156 | 0.215 | 0.000 | 66.275 | – | – | – | – | – | – | – | – |
